One series concerns the target T1, human recombinant MAO-B (hMAO-B) (Homo sapiens, UniProt P27338).
T1 construct: purchased Sigma Aldrich
T1 sequence (P27338 1-520): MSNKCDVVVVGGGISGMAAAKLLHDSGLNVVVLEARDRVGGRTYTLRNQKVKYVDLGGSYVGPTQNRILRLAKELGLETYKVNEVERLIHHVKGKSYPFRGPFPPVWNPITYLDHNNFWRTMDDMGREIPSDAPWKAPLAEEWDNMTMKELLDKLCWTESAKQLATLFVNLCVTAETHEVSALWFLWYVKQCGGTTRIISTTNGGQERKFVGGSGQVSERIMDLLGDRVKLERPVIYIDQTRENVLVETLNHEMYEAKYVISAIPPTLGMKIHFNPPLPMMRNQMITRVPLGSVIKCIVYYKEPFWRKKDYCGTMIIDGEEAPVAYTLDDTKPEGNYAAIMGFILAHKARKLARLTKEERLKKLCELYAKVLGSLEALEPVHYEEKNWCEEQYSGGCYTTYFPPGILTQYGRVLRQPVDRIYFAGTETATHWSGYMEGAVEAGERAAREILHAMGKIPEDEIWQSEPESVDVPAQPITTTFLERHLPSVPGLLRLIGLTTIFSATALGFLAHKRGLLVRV
As to the kind of experiment: In vitro MAO-B enzyme assay (H2O2 release, absorbance 570 nm). Type of series: biochemical. Particulars: hMAO-B, substrate benzylamine; read-out: Inhibition (IC50) MAO-B.
Method: (§1) In brief, human recombinant MAO-A (hMAO-A) and MAO-B (hMAO-B) (Sigma Aldrich) were diluted in 50 mM phosphate buffer (~ 0.3 μg MAO-A protein/well or ~ 2.5 μg MAO-B protein/well), and the test compound was added in DMSO to a final concentration from 0.1 nM to 10 μM. The amount of hydrogen peroxide (H2O2) released after addition of enzyme substrate (p-tyramine for MAO-A or benzylamine for MAO-B) was quantified by measuring the absorbance increase at 570 nm on a microplate reader.
For `NC(=O)CNCc1ccc(-c2ccc(F)cc2)cc1` [Compound 17d], the IC50 was more than 10 µM.
Consider `CC(C)Cc1ccc(-c2ccc(CN[C@@H](C)C(N)=O)cc2)cc1` [Compound 18o], for which the IC50 came out at 0.325 ± 0.09 µM.
On the same count and under the same terms, under `CS(=O)(=O)O.NC(=O)CNCc1ccc(-c2ccccc2)cc1` [Compound 17a] stands more than 10 µM.
Still for that read-out and setting: under `COc1ccc(-c2ccc(CNCC(N)=O)cc2)cc1` [Compound 17n] stands more than 10 µM; under `CCC(C)[C@H](NCc1ccc(-c2cccc(F)c2)cc1)C(N)=O` (stereo partly drawn) [Compound 23c], more than 10 µM; under `NC(=O)CNCc1ccc(-c2cccc(Cl)c2)cc1` [Compound 17f], 1.56 ± 0.071 µM.
The same measure, in the same setting: under `CC(=O)N[C@H]1CC(=O)N(c2ccc(OCc3cccc(F)c3)cc2)C1` [Sembragiline, reference compound] stands 0.015 ± 0.005 µM; under `CC(C)[C@H](NCc1ccc(-c2ccc(C(F)(F)F)cc2)cc1)C(N)=O` [Compound 21j], 4.07 ± 0.15 µM.
Take `NC(=O)CNCc1ccc(-c2ccc(Cl)cc2)cc1` [Compound 17g]: the 50% inhibitory concentration (IC50) amounted to 1.43 ± 0.1 µM.
The same measure, in the same setting: the same measure for `CC(C)[C@H](NCc1ccc(-c2cccc(C(F)(F)F)c2)cc1)C(N)=O` [Compound 21i]: more than 10 µM.

The series is the same for the next values; noted with them: selectivity for MAO-B isoform.
On to `CC(C)Cc1ccc(-c2ccc(CN[C@@H](C)C(N)=O)cc2)cc1` [Compound 18o], for which the “SI (selectivity index), IC50(MAO-A)/IC50(MAO-B)” value (“SI (selectivity index)” for short) is listed as more than 307.
The same measure, in the same setting: under `NC(=O)CNCc1ccc(-c2cccc(Cl)c2)cc1` [Compound 17f] stands more than 64.
Take `CC(=O)N[C@H]1CC(=O)N(c2ccc(OCc3cccc(F)c3)cc2)C1` [Sembragiline, reference compound]: the “SI (selectivity index)” value came out at 653.
Same read-out and setting: the same measure for `CC(C)[C@H](NCc1ccc(-c2ccc(C(F)(F)F)cc2)cc1)C(N)=O` [Compound 21j]: more than 25; for `NC(=O)CNCc1ccc(-c2ccc(Cl)cc2)cc1` [Compound 17g]: more than 70.

A further series addresses T2, human recombinant MAO-A (hMAO-A) (Homo sapiens, UniProt P21397).
T2 construct: purchased Sigma Aldrich
T2 sequence (P21397 1-527): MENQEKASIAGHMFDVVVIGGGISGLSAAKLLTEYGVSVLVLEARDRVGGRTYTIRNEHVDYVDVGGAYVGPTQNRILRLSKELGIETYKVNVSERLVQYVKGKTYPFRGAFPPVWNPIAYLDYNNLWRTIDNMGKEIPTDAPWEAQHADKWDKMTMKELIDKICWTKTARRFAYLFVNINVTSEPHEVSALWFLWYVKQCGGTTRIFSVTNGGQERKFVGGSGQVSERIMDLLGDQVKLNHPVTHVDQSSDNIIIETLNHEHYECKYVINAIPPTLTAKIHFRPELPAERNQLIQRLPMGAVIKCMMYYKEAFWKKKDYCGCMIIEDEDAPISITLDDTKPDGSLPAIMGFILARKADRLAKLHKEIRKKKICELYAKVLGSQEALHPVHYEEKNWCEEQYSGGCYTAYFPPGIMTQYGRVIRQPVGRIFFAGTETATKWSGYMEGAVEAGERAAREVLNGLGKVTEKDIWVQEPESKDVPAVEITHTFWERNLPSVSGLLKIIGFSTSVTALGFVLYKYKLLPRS
As to the kind of experiment: In vitro MAO-A enzyme assay (H2O2 release, absorbance 570 nm). The class given is biochemical. The following applies: substrate p-tyramine, read-out: Inhibition (IC50) MAO-A.
Method: as §1
On to `NC(=O)CNCc1ccc(-c2ccc(F)cc2)cc1` [Compound 17d], for which the IC50 was more than 100 µM.
On the same count and under the same terms, under `CC(C)Cc1ccc(-c2ccc(CN[C@@H](C)C(N)=O)cc2)cc1` [Compound 18o] stands more than 100 µM; under `CS(=O)(=O)O.NC(=O)CNCc1ccc(-c2ccccc2)cc1` [Compound 17a], more than 100 µM; under `COc1ccc(-c2ccc(CNCC(N)=O)cc2)cc1` [Compound 17n], more than 100 µM.
With `CCC(C)[C@H](NCc1ccc(-c2cccc(F)c2)cc1)C(N)=O` (stereo partly drawn) [Compound 23c], the IC50 is more than 100 µM.
Still for that read-out and setting: under `NC(=O)CNCc1ccc(-c2cccc(Cl)c2)cc1` [Compound 17f] stands more than 100 µM; under `CC(=O)N[C@H]1CC(=O)N(c2ccc(OCc3cccc(F)c3)cc2)C1` [Sembragiline, reference compound], 3.85 µM.
Still for that read-out and setting: the same measure for `CC(C)[C@H](NCc1ccc(-c2ccc(C(F)(F)F)cc2)cc1)C(N)=O` [Compound 21j]: more than 100 µM; for `NC(=O)CNCc1ccc(-c2ccc(Cl)cc2)cc1` [Compound 17g]: more than 100 µM; for `CC(C)[C@H](NCc1ccc(-c2cccc(C(F)(F)F)c2)cc1)C(N)=O` [Compound 21i]: more than 100 µM.

The next series has as its system MPTP-induced PD mouse model. Description: MPTP mouse model: vertical grid test and coat hanger test. Type of series: in vivo. Particulars: MPTP mice; long-term (30-day) treatment, 10 mg/kg/day oral.
Method: Group allocation and outcome assessment, but not the conduct of experiments and data analysis, were performed in a blinded manner. Throughout the study, confounders were not controlled. An acclimation period of 7 days was allowed for animals to stabilize in a new environment before model induction. […] Treatment drugs were dissolved in 100 μL of water and total dose (in mg) was calculated according to individual body weight (in kg).
The MPTP model was established using the acute regimen of four intraperitoneal (i.p.) injections of MPTP-HCl (M0896, Sigma Aldrich, 2 mg/mL in saline, 20 mg/kg for one injection) at 2-h intervals.
Motor deficits of the MPTP-induced PD mouse model were assessed using the vertical grid test as described in the previous study [23]. Briefly, after 2 days of habituation to the testing apparatus, individual mice were gently placed 3 cm from the top, facing upward, and allowed to turn around and climb down. We also performed a coat hanger test as described [24–26]. Briefly, a mouse was gently hung on the middle of a coat hanger and allowed to ascend to the top. Performance was graded as follows: 0, falling off the hanger within 20 s; 1, moving to the side-bar of the hanger; 2, reaching the side-bar of the hanger; 3, climbing the side-bar of the hanger; 4, moving to the top of the hanger; 5, climbing and reaching the safe zone. The test was performed twice and each trial lasted a maximum of 3 min.
Take `C[C@H](NCc1ccc(OCc2cccc(F)c2)cc1)C(N)=O` [Safinamide, reference compound]: the “vertical grid test: time to turn” value is reported as “reduced” and the “vertical grid test: total time” value is listed as “reduced”.

Test system in another series: not given
Test: not given
Conditions: not given
`C[C@H](NCc1ccc(-c2ccc(Cl)cc2)cc1)C(N)=O` [Compound 18g] came in with a melting point of 220 to 223 °C.
Same read-out and setting: the same measure for `C[C@H](NCc1ccc(-c2ccccc2C(F)(F)F)cc1)C(N)=O` [Compound 18h]: 224 to 227 °C; for `C[C@H](NCc1ccc(-c2ccc(OC(F)(F)F)cc2)cc1)C(N)=O` [Compound 18l]: 256 to 259 °C; for `C[C@H](NCc1ccc(-c2cccc(F)c2)cc1)C(N)=O` [Compound 18c]: 235 to 238 °C.
As for `NC(=O)CNCc1ccc(-c2ccc(F)cc2)cc1` [Compound 17d], the melting point is 238 to 242 °C.
Still for that read-out and setting: the same measure for `CC(C)Cc1ccc(-c2ccc(CN[C@@H](C)C(N)=O)cc2)cc1` [Compound 18o]: 253 to 256 °C; for `CS(=O)(=O)O.NC(=O)CNCc1ccc(-c2ccccc2)cc1` [Compound 17a]: 233 to 236 °C.
The same measure, in the same setting: the same measure for `COc1ccc(-c2ccc(CNCC(N)=O)cc2)cc1` [Compound 17n]: 243 to 245 °C; for `CCC(C)[C@H](NCc1ccc(-c2cccc(F)c2)cc1)C(N)=O` (stereo partly drawn) [Compound 23c]: 252 to 255 °C.
Compound `NC(=O)CNCc1ccc(-c2cccc(Cl)c2)cc1` [Compound 17f] registered a melting point of 165 to 168 °C.
On the same count and under the same terms, under `CC(C)[C@H](NCc1ccc(-c2ccc(C(F)(F)F)cc2)cc1)C(N)=O` [Compound 21j] stands 266 to 267 °C; under `NC(=O)CNCc1ccc(-c2ccc(Cl)cc2)cc1` [Compound 17g], 262 to 266 °C.
`CC(C)[C@H](NCc1ccc(-c2cccc(C(F)(F)F)c2)cc1)C(N)=O` [Compound 21i] had a melting point of 274 to 278 °C.

In another series the target is T1, human recombinant MAO-B (hMAO-B).
Test: not given
The following applies: hMAO-B; ref Park, JH. et al. Science Advances. 5(3), eaav0136 (2019); read-out: Inhibition (IC50) MAO-B; cited from earlier work.
As to `C[C@H](NCc1ccc(-c2ccc(Cl)cc2)cc1)C(N)=O` [Compound 18g], the IC50 was 0.182 ± 0.007 µM.
For the compound `C[C@H](NCc1ccc(-c2ccccc2C(F)(F)F)cc1)C(N)=O` [Compound 18h], the IC50 is more than 10 µM.

Still in this series, the particulars now being: positive control, literature value; ref Borroni, E. et al. J. Pharmacol. Exp. Ther. 362, 413–423 (2017); read-out: Inhibition (IC50) MAO-B; cited from earlier work.
Turning to `CC(=O)N[C@H]1CC(=O)N(c2ccc(OCc3cccc(F)c3)cc2)C1` [Sembragiline, reference compound], the IC50 was 0.006 ± 0.001 µM.

The series is the same for the next values; noted with them: selectivity for MAO-B isoform; ref Park, JH. et al. Science Advances. 5(3), eaav0136 (2019); cited from earlier work.
As to `C[C@H](NCc1ccc(-c2ccc(Cl)cc2)cc1)C(N)=O` [Compound 18g], the “SI (selectivity index)” value was more than 549.
Take `C[C@H](NCc1ccc(-c2ccc(OC(F)(F)F)cc2)cc1)C(N)=O` [Compound 18l]: the “SI (selectivity index)” value is > 1,020.
Consider `C[C@H](NCc1ccc(-c2cccc(F)c2)cc1)C(N)=O` [Compound 18c], for which the “SI (selectivity index)” value was more than 27.

For another series, the target named is T2, human recombinant MAO-A (hMAO-A).
Test: not given
Particulars: ref Park, JH. et al. Science Advances. 5(3), eaav0136 (2019), read-out: Inhibition (IC50) MAO-A; cited from earlier work.
Take `C[C@H](NCc1ccc(-c2ccc(Cl)cc2)cc1)C(N)=O` [Compound 18g]: the IC50 was more than 100 µM.
In the case of `C[C@H](NCc1ccc(-c2ccccc2C(F)(F)F)cc1)C(N)=O` [Compound 18h], the half-inhibitory concentration (IC50) was more than 100 µM.
Turning to `C[C@H](NCc1ccc(-c2ccc(OC(F)(F)F)cc2)cc1)C(N)=O` [Compound 18l], the IC50 is more than 100 µM.
Regarding `C[C@H](NCc1ccc(-c2cccc(F)c2)cc1)C(N)=O` [Compound 18c], the IC50 was more than 100 µM.
As to `CC(NCc1ccc(-c2ccc(C(F)(F)F)cc2)cc1)C(N)=O` (stereo not drawn) [Compound 19j], the IC50 was more than 100 µM.

The term IC50 denotes the concentration needed to halve the response being measured. What is called melting point is the temperature, or range, at which the solid turns liquid.

The values above are taken from article PMC8608967, “KDS2010, a Newly Developed Reversible MAO-B Inhibitor, as an Effective Therapeutic Candidate for Parkinson’s Disease” (Neurotherapeutics, 2021).
